Results published in patent US10214507B2, “Carbazole-containing amides, carbamates, and ureas as cryptochrome modulators” (Reset Therapeutics, Inc., priority 2014, dated 2019).

test system: stable U20S reporter cells harboring Per2-dLuc; test: Per2 assay for evaluating the potency of test compounds (circadian luciferase reporter); format: cell-based; settings: amplitude of Per2-dLuc luminescence vs log concentration
How it was run: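 U2OS Per2-dLuc cells grown 48 h at 37 °C, then synchronized with 5 μM forskolin plus 1 mM luciferin and dosed with 3-fold compound dilutions.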

| SMILES | EC50 [µM] |
| --- | --- |
| O=C1[C@H]2CC[C@H](C2)N1C[C@H](O)Cn1c2ccc(F)cc2c2cc(F)ccc21 [Compound 105, (1R,4S)-2-((R)-3-(3,6-difluoro-9H-carbazol-9-yl)-2-hydroxypropyl)-2-azabicyclo[2.2.1]heptan-3-one] | 0.054 |
| CC1CCCC(=O)N1CC(C)(O)Cn1c2ccc(F)cc2c2cc(F)ccc21 (stereo not shown) [Compound 40, 1-(3-(3,6-difluoro-9H-carbazol-9-yl)-2-hydroxy-2-methylpropyl)-6-methylpiperidin-2-one] | 0.484 |
| O=C1NCCCN1CC(O)Cn1c2ccccc2c2ccccc21 (stereo not shown) [Compound 3, 1-(3-(9H-carbazol-9-yl)-2-hydroxypropyl)tetrahydropyrimidin-2(1H)-one] | 0.299 |
| CC(O)(CN1CCCC1=O)Cn1c2ccc(F)cc2c2cc(F)ccc21 (stereo not shown) [Compound 8, 1-(3-(3,6-difluoro-9H-carbazol-9-yl)-2-hydroxy-2-methylpropyl)pyrrolidin-2-one] | 0.527 |
| O=C1CCCN1CC(O)Cn1c2ccc(F)cc2c2cc(F)ccc21 (stereo not shown) [Compound 7, 1-(3-(3,6-difluoro-9H-carbazol-9-yl)-2-hydroxypropyl)pyrrolidin-2-one] | 0.625 |
| C[C@H]1CCC(=O)N1C[C@H](O)Cn1c2ccccc2c2ccccc21 [Compound 112, (S)-1-((R)-3-(9H-carbazol-9-yl)-2-hydroxypropyl)-5-methylpyrrolidin-2-one] | 0.47 |
| O=C1N(CC(O)Cn2c3ccc(F)cc3c3cc(F)ccc32)CCCN1C1CCCC1 (stereo not shown) [Compound 76, 1-cyclopentyl-3-(3-(3,6-difluoro-9H-carbazol-9-yl)-2-hydroxypropyl)tetrahydropyrimidin-2(1H)-one] | 0.609 |
| O=C1N(CC(O)Cn2c3ccc(F)cc3c3cc(F)ccc32)CCCN1C1CCC1 (stereo not shown) [Compound 78, 1-cyclobutyl-3-(3-(3,6-difluoro-9H-carbazol-9-yl)-2-hydroxypropyl)tetrahydropyrimidin-2(1H)-one] | 0.44 |
| O=C1CCCN1CC(O)Cn1c2ccccc2c2ccccc21 (stereo not shown) [Compound 68, 1-(3-(9H-carbazol-9-yl)-2-hydroxypropyl)pyrrolidin-2-one] | 0.288 |
| CC(O)(CN1CCCC(C2CCC2)C1=O)Cn1c2ccc(F)cc2c2cc(F)ccc21 (stereo not shown) [Compound 52, 3-cyclobutyl-1-(3-(3,6-difluoro-9H-carbazol-9-yl)-2-hydroxy-2-methylpropyl)piperidin-2-one] | 1.35 |
| CC(C)N1CCN(CC(O)Cn2c3ccc(F)cc3c3cc(F)ccc32)C1=O (stereo not shown) [Compound 90, 1-(3-(3,6-difluoro-9H-carbazol-9-yl)-2-hydroxypropyl)-3-isopropylimidazolidin-2-one] | 0.605 |
| CC1CCC(=O)N(CC(C)(O)Cn2c3ccc(F)cc3c3cc(F)ccc32)C1 (stereo not shown) [Compound 38, 1-(3-(3,6-difluoro-9H-carbazol-9-yl)-2-hydroxy-2-methylpropyl)-5-methylpiperidin-2-one] | 1.22 |
| CCC1CCCN(CC(O)Cn2c3ccc(F)cc3c3cc(F)ccc32)C1=O (stereo not shown) [Compound 24, 1-(3-(3,6-difluoro-9H-carbazol-9-yl)-2-hydroxypropyl)-3-ethylpiperidin-2-one] | 0.332 |
| CC(O)(CN1CCCC(F)C1=O)Cn1c2ccc(F)cc2c2cc(F)ccc21 (stereo not shown) [Compound 12, 1-(3-(3,6-difluoro-9H-carbazol-9-yl)-2-hydroxy-2-methylpropyl)-3-fluoropiperidin-2-one] | 0.909 |
| O=C1NCCCN1CC(O)Cn1c2ccc(F)cc2c2cc(F)ccc21 (stereo not shown) [Compound 71, 1-(3-(3,6-difluoro-9H-carbazol-9-yl)-2-hydroxypropyl)tetrahydropyrimidin-2(1H)-one] | 0.188 |
| C[C@@H]1CCN(C[C@H](O)Cn2c3ccc(F)cc3c3cc(F)ccc32)C1=O [Compound 116, (R)-1-((R)-3-(3,6-difluoro-9H-carbazol-9-yl)-2-hydroxypropyl)-3-methylpyrrolidin-2-one] | 0.311 |

| SMILES | EC50 [µM] |
| --- | --- |
| O=C1CC(C2CC2)CN1CC(O)Cn1c2ccccc2c2ccccc21 (stereo not shown) [Compound 65, 1-(3-(9H-carbazol-9-yl)-2-hydroxypropyl)-4-cyclopropylpyrrolidin-2-one] | 1.03 |
| CC(O)(CN1CCCC(F)(F)C1=O)Cn1c2ccc(F)cc2c2cc(F)ccc21 (stereo not shown) [Compound 14, 1-(3-(3,6-difluoro-9H-carbazol-9-yl)-2-hydroxy-2-methylpropyl)-3,3-difluoropiperidin-2-one] | 0.541 |
| O=C1[C@H]2CC[C@H](C2)N1C[C@@H](O)Cn1c2ccccc2c2ccccc21 [Compound 108, (1R,4S)-2-((S)-3-(9H-carbazol-9-yl)-2-hydroxypropyl)-2-azabicyclo[2.2.1]heptan-3-one] | 0.75 |
| CC1CCC(=O)N1CC(C)(O)Cn1c2ccc(F)cc2c2cc(F)ccc21 (stereo not shown) [Compound 35, 1-(3-(3,6-difluoro-9H-carbazol-9-yl)-2-hydroxy-2-methylpropyl)-5-methylpyrrolidin-2-one] | 0.678 |
| C[C@H]1CCC(=O)N(C[C@H](O)Cn2c3ccc(F)cc3c3cc(F)ccc32)C1 [Compound 130, (S)-1-((R)-3-(3,6-difluoro-9H-carbazol-9-yl)-2-hydroxypropyl)-5-methylpiperidin-2-one] | 0.895 |
| CC(C)C1CCCN(CC(O)Cn2c3ccc(F)cc3c3cc(F)ccc32)C1=O (stereo not shown) [Compound 25, 1-(3-(3,6-difluoro-9H-carbazol-9-yl)-2-hydroxypropyl)-3-isopropylpiperidin-2-one] | 0.079 |
| C[C@@H]1CCC(=O)N(C[C@@H](O)Cn2c3ccccc3c3ccccc32)C1 [Compound 133, (R)-1-((S)-3-(9H-carbazol-9-yl)-2-hydroxypropyl)-5-methylpiperidin-2-one] | 0.838 |
| CCN1CCCN(CC(O)Cn2c3ccc(F)cc3c3cc(F)ccc32)C1=O (stereo not shown) [Compound 86, 1-(3-(3,6-difluoro-9H-carbazol-9-yl)-2-hydroxypropyl)-3-ethyltetrahydropyrimidin-2(1H)-one] | 0.497 |
| O=C1N(CC(O)Cn2c3ccc(F)cc3c3cc(F)ccc32)CCN1C1CC1 (stereo not shown) [Compound 92, 1-cyclopropyl-3-(3-(3,6-difluoro-9H-carbazol-9-yl)-2-hydroxypropyl)imidazolidin-2-one] | 0.527 |
| O=C1C(C2CCC2)CCN1CC(O)Cn1c2ccc(F)cc2c2cc(F)ccc21 (stereo not shown) [Compound 50, 3-cyclobutyl-1-(3-(3,6-difluoro-9H-carbazol-9-yl)-2-hydroxypropyl)pyrrolidin-2-one] | 0.204 |
| CC(C)C1CCCN(CC(C)(O)Cn2c3ccc(F)cc3c3cc(F)ccc32)C1=O (stereo not shown) [Compound 26, 1-(3-(3,6-difluoro-9H-carbazol-9-yl)-2-hydroxy-2-methylpropyl)-3-isopropylpiperidin-2-one] | 1.05 |
| CCC1CC(=O)N(CC(O)Cn2c3ccc(F)cc3c3cc(F)ccc32)C1 (stereo not shown) [Compound 45, 1-(3-(3,6-difluoro-9H-carbazol-9-yl)-2-hydroxypropyl)-4-ethylpyrrolidin-2-one] | 0.052 |
| CC(O)(CN1CCOCC1=O)Cn1c2ccc(F)cc2c2cc(F)ccc21 (stereo not shown) [Compound 56, 4-(3-(3,6-difluoro-9H-carbazol-9-yl)-2-hydroxy-2-methylpropyl)morpholin-3-one] | 1.06 |
| CCN1CCCN(CC(C)(O)Cn2c3ccc(F)cc3c3cc(F)ccc32)C1=O (stereo not shown) [Compound 87, 1-(3-(3,6-difluoro-9H-carbazol-9-yl)-2-hydroxy-2-methylpropyl)-3-ethyltetrahydropyrimidin-2(1H)-one] | 0.317 |
| C[C@@H]1CCC(=O)N(C[C@H](O)Cn2c3ccc(F)cc3c3cc(F)ccc32)C1 [Compound 134, (R)-1-((R)-3-(3,6-difluoro-9H-carbazol-9-yl)-2-hydroxypropyl)-5-methylpiperidin-2-one] | 0.397 |
